Holding throughout (assay type): functional
Assay [1] deals with Mus musculus. Nature of the assay: Effective dose required to inhibit Staphylococcus aureus in mouse was determined after peroral administration of the compound; (8.1- 14). As to conditions: po.
Assay [2] has as its system Mus musculus. Nature of the assay: Effective dose required to inhibit Staphylococcus aureus in mouse was determined after sub cutaneous administration (0.5-1.4).
Assay [3] has as its system Streptococcus pneumoniae. Nature of the assay: Minimum inhibitory concentration of the compound against 3 […] Streptococcus pneumoniae OC4421 with an mef(A) efflux-mediated resistance was determined.
In assay [4] the test system is Mus musculus. Nature of the assay: Effective dose required to inhibit Staphylococcus aureus in mouse was determined after sub cutaneous administration (6.6-70).
Assay [5] deals with Staphylococcus aureus. Nature of the assay: Minimum inhibitory concentration of the compound against erythromycin-susceptible Staphylococcus aureus Smith OC4172 was determined.
Assay [6] has as its system Haemophilus influenzae. Nature of the assay: Minimum inhibitory concentration of the compound against Haemophilus influenzae OC4882 was determined.
The subject of assay [7] is Streptococcus pneumoniae. Nature of the assay: Minimum inhibitory concentration of the compound against erythromycin-susceptible Streptococcus pneumoniae was determined.
The test system of assay [8] is Streptococcus pneumoniae. Nature of the assay: Minimum inhibitory concentration of the compound against 3 […] Streptococcus pneumoniae OC4051 with an erm(B)-ribosomal methylase-mediated resistance was determined.
Assay [9] concerns Mus musculus. Nature of the assay: Effective dose required to inhibit Staphylococcus aureus in mouse was determined after peroral administration of the compound. As to conditions: po.
Assay [10] concerns Enterococcus faecalis. Nature of the assay: Minimum inhibitory concentration of the compound againstEnterococcus faecalis ATCC 51299 with an erm(B)-encoded ribosomal methylase was determined.

In brackets after ≈: the same amount, converted by molar mass.

For `CC[C@H]1OC(=O)C(C)C(=O)[C@H](C)[C@@H](O[C@@H]2O[C@H](C)C[C@H](N(C)C)[C@H]2O)[C@](C)(OC(=O)NC/C=C/c2ccc(-c3ncccn3)cc2)C[C@@H](C)C(=O)[C@H](C)[C@H]2NC(=O)O[C@@]21C` (stereo partly drawn), the ED50 in assay [1] worked out at 10 mg/kg; in assay [2], 1 mg/kg.

As to `CC[C@H]1OC(=O)[C@@](C)(F)C(=O)[C@H](C)[C@@H](O[C@@H]2O[C@H](C)C[C@H](N(C)C)[C@H]2O)[C@](C)(OC(=O)NC/C=C/c2ccc(-c3ncccn3)cc2)C[C@@H](C)C(=O)[C@H](C)[C@H]2NC(=O)O[C@@]21C`, the MIC in assay [3] is 0.12 µg/mL (≈ 0.141 µM); in assay [5], 0.5 µg/mL (≈ 0.585 µM); in assay [6], 8 µg/mL (≈ 9.37 µM); in [7], 0.06 µg/mL (≈ 0.0703 µM); in assay [8] it was 0.12 µg/mL (≈ 0.141 µM); in assay [10], 8 µg/mL (≈ 9.37 µM). The ED50 was 12 mg/kg in assay [4] and greater than 40 mg/kg in assay [9].

`CC[C@H]1OC(=O)[C@@](C)(F)C(=O)[C@H](C)[C@@H](O[C@@H]2O[C@H](C)C[C@H](N(C)C)[C@H]2O)[C@](C)(OC(=O)NCCOCc2ccc(-c3ncccn3)cc2)C[C@@H](C)/C(=N\O)[C@H](C)[C@H]2NC(=O)O[C@@]21C`: the MIC was 0.25 µg/mL (≈ 0.282 µM) in assay [3]; 0.5 µg/mL (≈ 0.564 µM) in [5]; 8 µg/mL (≈ 9.02 µM) in assay [6]; 0.06 µg/mL (≈ 0.0676 µM) in assay [7]; 0.06 µg/mL (≈ 0.0676 µM) in [8]; 16 µg/mL (≈ 18 µM) in assay [10].

For the molecule `CC[C@H]1OC(=O)[C@@](C)(F)C(=O)[C@H](C)[C@@H](O[C@@H]2O[C@H](C)C[C@H](N(C)C)[C@H]2O)[C@](C)(OC(=O)NCCOCc2ccc(-c3ncccn3)cc2)C[C@@H](C)C(=O)[C@H](C)[C@H]2NC(=O)O[C@@]21C`, the MIC in [3] is 0.12 µg/mL (≈ 0.138 µM); in assay [5] it was 0.25 µg/mL (≈ 0.287 µM); in assay [6] it was 8 µg/mL (≈ 9.17 µM); in [7], 0.06 µg/mL (≈ 0.0688 µM); in [8] it was 0.12 µg/mL (≈ 0.138 µM); in [10], greater than 16 µg/mL.

For the molecule `CC[C@H]1OC(=O)[C@H](C)[C@@H](O[C@H]2C[C@@](C)(OC)[C@@H](O)[C@H](C)O2)[C@H](C)[C@@H](O[C@@H]2O[C@H](C)C[C@H](N(C)C)[C@H]2O)[C@](C)(O)C[C@@H](C)C(=O)[C@H](C)[C@@H](O)[C@]1(C)O` [ERYTHROMYCIN], the MIC in assay [3] is 4 µg/mL (≈ 5.45 µM); in assay [5] it was 0.5 µg/mL (≈ 0.681 µM); in [6], 8 µg/mL (≈ 10.9 µM); in assay [7], 0.06 µg/mL (≈ 0.0818 µM); in [8] it was greater than 16 µg/mL; in [10] it was greater than 16 µg/mL.

On to `CC[C@H]1OC(=O)[C@@](C)(F)C(=O)[C@H](C)[C@@H](O[C@@H]2O[C@H](C)C[C@H](N(C)C)[C@H]2O)[C@](C)(OC(=O)NC/C=C/c2cn(-c3ncccn3)cn2)C[C@@H](C)C(=O)[C@H](C)[C@H]2NC(=O)O[C@@]21C`, for which the MIC in assay [3] came out at 0.25 µg/mL (≈ 0.296 µM); in assay [5] it was 0.12 µg/mL (≈ 0.142 µM); in [6], 8 µg/mL (≈ 9.48 µM); in assay [7], 0.03 µg/mL (≈ 0.0355 µM); in assay [8] it was 0.06 µg/mL (≈ 0.0711 µM); in assay [10], 8 µg/mL (≈ 9.48 µM).

Consider `CC[C@H]1OC(=O)[C@@](C)(F)C(=O)[C@H](C)[C@@H](O[C@@H]2O[C@H](C)C[C@H](N(C)C)[C@H]2O)[C@](C)(OC(=O)NC/C=C/c2ccc(-c3cnccn3)cc2)C[C@@H](C)C(=O)[C@H](C)[C@H]2NC(=O)O[C@@]21C`, for which the MIC in [3] is 0.06 µg/mL (≈ 0.0703 µM); in assay [5] it was 0.25 µg/mL (≈ 0.293 µM); in assay [6] it was 4 µg/mL (≈ 4.68 µM); in assay [7], 0.03 µg/mL (≈ 0.0351 µM); in [8] it was 0.06 µg/mL (≈ 0.0703 µM); in [10] it was 4 µg/mL (≈ 4.68 µM).

Turning to `CC[C@H]1OC(=O)[C@@](C)(F)C(=O)[C@H](C)[C@@H](O[C@@H]2O[C@H](C)C[C@H](N(C)C)[C@H]2O)[C@](C)(OC(=O)NC/C=C/c2cccnc2)C[C@@H](C)/C(=N\O)[C@H](C)[C@H]2NC(=O)O[C@@]21C`, the MIC in [3] was 0.5 µg/mL (≈ 0.631 µM); in assay [5], 0.5 µg/mL (≈ 0.631 µM); in [6] it was 2 µg/mL (≈ 2.53 µM); in assay [7], 0.06 µg/mL (≈ 0.0758 µM); in [8], 0.12 µg/mL (≈ 0.152 µM); in assay [10], greater than 16 µg/mL.

In the case of `CC[C@H]1OC(=O)[C@@](C)(F)C(=O)[C@H](C)[C@@H](O[C@@H]2O[C@H](C)C[C@H](N(C)C)[C@H]2O)[C@](C)(OC(=O)NCc2ccc(-c3ccncn3)cc2)C[C@@H](C)C(=O)[C@H](C)[C@H]2NC(=O)O[C@@]21C`, the MIC in assay [3] was determined as 0.12 µg/mL (≈ 0.145 µM); in [5], 0.12 µg/mL (≈ 0.145 µM); in assay [6], 4 µg/mL (≈ 4.83 µM); in assay [7], 0.03 µg/mL (≈ 0.0362 µM); in [8], 0.06 µg/mL (≈ 0.0725 µM); in assay [10], 16 µg/mL (≈ 19.3 µM).

As to `CC[C@H]1OC(=O)[C@@](C)(F)C(=O)[C@H](C)[C@@H](O[C@@H]2O[C@H](C)C[C@H](N(C)C)[C@H]2O)[C@](C)(OC(N)=O)C[C@@H](C)/C(=N\O)[C@H](C)[C@H]2NC(=O)O[C@@]21C`, the MIC in assay [3] was 2 µg/mL (≈ 2.96 µM); in assay [5], 1 µg/mL (≈ 1.48 µM); in assay [6], 4 µg/mL (≈ 5.93 µM); in assay [7] it was 0.12 µg/mL (≈ 0.178 µM); in assay [8], 2 µg/mL (≈ 2.96 µM); in [10], greater than 16 µg/mL.

These data come from ChEMBL document CHEMBL1141900, “Synthesis and antibacterial activity of C2-fluoro, C6-carbamate ketolides, and their C9-oximes” (2005).
